EC50, IC50 and outcome data for 73 compounds are collected here from PubChem BioAssay AID179 (DTP/NCI, 2004).

Molecules are shown by their SMILES. Calls of active or inactive are those of the source.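 How the source made its calls: active means compounds giving half or more protection of infected cells from virus-caused growth loss, again on retest; inactive means the rest.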 Where a SMILES comes first, the peptide text is derived from it. The star is where a group is joined. Boc = CC(C)(C)OC(=O)*

For the experiment, the system named is CEM cells HIV-1 protection, formazan growth assay. Description: NCI AIDS Antiviral Assay. The note with it: for IC50: measured here: growth of uninfected CEM cells. The essentials: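 Protection of CEM cells against HIV-1 was scored from cell growth (soluble formazan) across five concentrations, with parallel uninfected cells. Lack of protection may reflect toxicity.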

Turning to `S=c1sc2ccccc2n1CCSSCCn1c(=S)sc2ccccc21`, the EC50 was > 200 µM and the IC50 came out at 191 µM. Consider `CCCC1OP(=O)(N2CC(C)N(P3(=O)OCC(CC)C(CCC)O3)CC2C)OCC1CC` (stereo unspecified), for which the EC50 was > 200 µM and the IC50 is > 200 µM. Regarding `CC1=NNC(=O)C1C1CC(c2c[nH]c3ccccc23)=NN/C1=N\N` (stereo unspecified), the EC50 was > 100 µM and the IC50 was > 100 µM. On to `CC1=CC(O)(c2ccccn2)P(=O)(c2ccccc2)C=C1C` (stereo unspecified), for which the EC50 was > 794 µM and the IC50 was > 794 µM. As for `CCOC(=O)C(=CNC(Cc1c[nH]c2ccccc12)C(=O)OC)C(=O)OCC` (stereo unspecified), the result was inactive. As to `CC(C)CCC[C@@H](C)C1CCC2[C@@H]3CC=C4C[C@@H](OC(=O)CCC(=O)O)CC[C@]4(C)C3CC[C@@]21C` (stereo partly specified), the result was inactive. With `Cc1cc(NS(=O)(=O)c2ccc(NC(=O)COC(=O)c3cccc4c(=O)c5ccccc5[nH]c34)cc2)no1`, the outcome was inactive. For `CCN1CCNc2c3cc(OC)ccc3nc3c([N+](=O)[O-])ccc1c23`, the EC50 is > 200 µM and the IC50 is 0.11 µM.

Take `CCC(/C(=N\Nc1c(Cl)cc(Cl)cc1Cl)c1ccccc1)n1ccnc1C` (stereo unspecified): the result was inactive. Regarding `CCCCCCCCCCCCCCCC(=O)Nc1ccn(C2CCC(COP(=O)(O)OCC(COP(=O)(O)OCC3OC(n4cc(C)c(=O)[nH]c4=O)CC3N=[N+]=[N-])OC(=O)CCCCCCCCCCCCCCC)O2)c(=O)n1` (stereo unspecified), the EC50 is 0.0182 µM and the IC50 is 50.1 µM.

`CCOC(=O)[C]1([Bi]([CH3])[CH3])N=NC(C(=O)OC)=C1C(=O)OC` (stereo unspecified): the EC50 was 17.4 µM and the IC50 came out at 26.3 µM. As to `N#CCC(=O)N1CCCOCCC1`, the EC50 was > 1380 µM and the IC50 was > 1380 µM.

For `COC(=O)C(=O)C(C(=O)C(=O)Nc1cccc(C(C)=O)c1)c1nc2ccccc2[nH]c1=O` (stereo unspecified), the EC50 is > 575 µM and the IC50 came to 302 µM. Regarding `CN1CCN(C2=Nc3ccccc3Cc3ccccc32)CC1`, the EC50 was > 170 µM and the IC50 turned out to be 64.6 µM. Regarding `CCOC(=O)c1cc2c3c(c(O)c(OC)c2s1)N(C(=O)c1cc2c4c(c(OC)c(OC)c2s1)N(C(=O)OC(C)(C)C(Cl)(Cl)Cl)CC4)CC3`, the outcome was inactive. Turning to `Cc1ccc(Oc2ccc(C(=O)c3cccc(C(=O)c4ccc(Oc5ccc(C)cc5)cc4)n3)cc2)cc1`, the EC50 is > 3.8 µM and the IC50 is > 3.8 µM. For `OCC(CO)c1cnnc2ccccc12`, the EC50 was > 525 µM and the IC50 was > 525 µM. For the compound `CN1CCCOC(c2ccc(Cl)cc2)O1` (stereo unspecified), the EC50 was > 200 µM and the IC50 is > 200 µM. As to `CC1(C)CC(=O)C(CCC(=O)/C=C/c2ccccc2)C(=O)C1`, the EC50 was > 87.1 µM and the IC50 was > 87.1 µM. On to `CC(=O)/C(=C/n1c(=S)[nH]c2ccc([N+](=O)[O-])cc21)C(=O)Nc1ccc(Cl)cc1`, for which the EC50 was > 100 µM and the IC50 was > 100 µM. As to `COC1=C(OC)CCC(/C(C#N)=C/c2ccc(OC)c(OC)c2)=C1`, the EC50 was > 41.7 µM and the IC50 amounted to 21.4 µM. With `CCN(CC)CCNCc1cc(Cl)cc2c1OCOC2`, the EC50 is > 200 µM and the IC50 was > 200 µM. With `CCN(CC)CCCNc1nccc2c(C)c3[nH]c4ccncc4c(=O)c3cc12`, the EC50 was > 174 µM and the IC50 was 1.07 µM.

As to `Cc1cn(CC2COC(CO)O2)c(=O)[nH]c1=O` (stereo unspecified), the EC50 was > 1020 µM and the IC50 was > 1020 µM.

Consider `CC(NC(=O)C(NC(=O)OC(C)(C)C)C(C)C)C(=O)N1CCCC1C(=O)O` (stereo not drawn) (Boc-Val-Ala-Pro-OH; configuration not given here), for which the EC50 was > 200 µM and the IC50 is > 200 µM. As to `O=C1C2C(C(=O)N1c1ccccc1)C1(Br)c3ccccc3C2(Br)C2C(=O)N(c3ccccc3)C(=O)C21` (stereo unspecified), the result was inactive. `CC(CC(=O)Nc1ccc(NC(=O)CC(C)N=NC(N)=S)cc1)N=NC(N)=S` (stereo unspecified): the EC50 is > 158 µM and the IC50 turned out to be 102 µM. `CCOC(=O)c1c(N)ssc1=S`: the EC50 is 87.1 µM and the IC50 turned out to be 158 µM. The matching figures for `COc1ccc2c(c1)CCc1c-2n(CCN2CCOCC2)c2ccc(OC)cc12`: > 200 µM and 166 µM.

Regarding `O=C1CCCC(=O)N1n1c(Cc2ccccc2)n[nH]c1=O`, the EC50 was > 200 µM and the IC50 is > 200 µM.

For the compound `Clc1ccc(Oc2ccc(N=Cc3ccc(Cl)cc3Cl)cc2Cl)cc1`, the EC50 was > 200 µM and the half-maximal inhibitory concentration (IC50) was found to be 5.37 µM. As to `COc1ccc(C2C(Cl)C(=O)N2n2cnc3ccccc3c2=O)cc1OC` (stereo unspecified), the EC50 is > 339 µM and the IC50 came to 46.8 µM.

Turning to `CC(C)OC(=O)NCCn1cc(-c2ccccc2)nn1`, the EC50 was > 200 µM and the IC50 is > 200 µM. With `COc1ccc(N2C(=O)C3c4[nH]c5ccccc5c4C4CCCCCCCCCC4C3C2=O)cc1` (stereo unspecified), the EC50 was > 200 µM and the IC50 is > 200 µM. As to `C[C@]12CC/C(=N/O)C(O)=C1CC[C@@H]1C2CC[C@]2(C)NC(=O)CCC12` (stereo partly specified), the EC50 was > 282 µM and the IC50 amounted to 132 µM. As for `O=C(O)CCSSc1ccc([N+](=O)[O-])cc1[N+](=O)[O-]`, the EC50 is > 200 µM and the IC50 is 15.8 µM.

On to `CN(C)C=Nc1c2c(nc3ccccc13)CCCC2`, for which the EC50 was > 200 µM and the IC50 is > 200 µM. Take `N=C1C=CC2C(=Nc3ccccc3[N+]2=O)N1Cc1ccncc1` (stereo unspecified): the EC50 is > 22.4 µM and the IC50 worked out at 21.4 µM.

As to `CCCCOCc1cc(CN2CCN(C)CC2)c(O)c2ncccc12`, the EC50 is > 145 µM and the IC50 was determined as 8.71 µM. For the compound `CCOC(=O)NC(NNc1ccc([N+](=O)[O-])cc1[N+](=O)[O-])(C(F)(F)F)C(F)(F)F`, the EC50 was > 200 µM and the IC50 was 43.7 µM.

Regarding `CCC[CH2][Sn]([Cl])([CH2]CCC)[CH2]CCC`, the result was inactive. With `CCN(CC)CCOc1ccc(/C=C(\C#N)c2ccc(N(CC)CC)cc2)cc1`, the EC50 was > 200 µM and the IC50 is 0.891 µM.

Consider `CCOC(=O)c1sc2nc(SC)nc3c2c1NCN3C1CC1`, for which the EC50 was > 100 µM and the IC50 is > 100 µM.

Turning to `COC(=O)C1(Cc2ccc3c(c2)CCC3)Cc2ccccc2C1O` (stereo unspecified), the EC50 is > 200 µM and the IC50 was determined as 26.9 µM. Take `O=C(OCC1CCCN2CCCCC12)c1ccncc1` (stereo unspecified): the EC50 was 19.1 µM and the IC50 was > 200 µM.

In the case of `CC1=C(O)C(=O)C(c2c(C)cc(C)c(Br)c2C)=C(O)C1=O`, the EC50 was > 115 µM and the IC50 was 15.5 µM. For `Nc1nn2cnnc2s1`, the result was inactive. On to `N#Cc1nc(C2CCC(=O)O2)oc1N` (stereo unspecified), for which the EC50 was > 200 µM and the 50% inhibitory concentration (IC50) was > 200 µM.

As to `Clc1cnnc2nc[nH]c12`, the EC50 is > 1150 µM and the IC50 came to 135 µM. As to `CCOC(=O)C(=O)/C(=C/N1C(=O)CC(=O)NC1=S)C(=O)OCC`, the EC50 is > 200 µM and the IC50 was > 200 µM.

For the compound `Cn1c(=O)n2n(c1=O)C1C3C4C5C3C13COCC53C42` (stereo unspecified), the result was inactive. As to `COc1ccccc1NC(=O)/C(C=NC(=S)C(N)=S)=C(\C)O`, the outcome was inactive. Turning to `Cc1cc2c(cc1C)[n+](=O)c(C(=O)C/C(=N/OCCCc1ccccc1)C(=O)Nc1cc(Cl)ccc1Cl)c(C)n2[O-]`, the EC50 is > 6.31 µM and the IC50 was > 6.31 µM. `CC(C)CN(CC(C)C)C(=O)C1CCCC[C@@H]1C(=O)O` (stereo partly specified): the EC50 is > 891 µM and the IC50 is > 891 µM. As to `Cc1cccc(NC(=S)NNC(=O)c2cc(-c3ccccc3)nc3ccccc23)c1`, the EC50 is > 200 µM and the IC50 came out at 24 µM. In the same order, the values of `COc1cc2c(cc1OC)C1Cc3cc(OC)c(OC)cc3N1CC2` (stereo unspecified) are > 29.5 µM and 9.12 µM.

With `CC(C)/C(Cl)=N\OC(=O)Nc1ccc(F)cc1`, the result was inactive. As to `COc1ccc(Nc2nc3ccc(C(F)(F)F)cc3nc2-c2ccccc2)cc1OC`, the EC50 was > 17 µM and the IC50 was > 17 µM. As for `Cc1ccc(S(=O)(=O)n2cc(/C=C/C#N)c(/C=C/C#N)c2)cc1`, the result was inactive. For `N#Cc1sc2c(c1O)c(=O)n(-c1ccccc1)c(=S)n2-c1ccccc1`, the EC50 was > 661 µM and the IC50 was found to be 30.9 µM. The matching figures for `CN(/N=C/c1cccc2cccnc12)c1ccc(Cl)cc1[N+](=O)[O-]`: > 200 µM and 178 µM. With `COc1cc2c(c3oc(=O)cc(-c4ccccc4)c13)C(=O)[C@H](C)[C@@H](C)O2`, the EC50 is > 200 µM and the IC50 is > 200 µM.

For the compound `CC(O)CCC(=O)c1ccoc1` (stereo unspecified), the EC50 is > 1480 µM and the IC50 was > 1480 µM. With `CC1CN(c2ccc(Cl)cc2)CC(C)(C)OC(=O)O1` (stereo unspecified), the EC50 is > 331 µM and the IC50 is 21.4 µM. The matching figures for `C1CCC(N=C2N(C3CCCCC3)C(=NC3CCCCC3)N2C2CCCCC2)CC1`: > 9.12 µM and > 9.12 µM. In the case of `CC1=CC(C)(C)SC(SSSSC2=NC(C)=CC(C)(C)S2)=N1`, the EC50 is > 200 µM and the half-inhibitory concentration (IC50) was found to be 29.5 µM. For `CC(C)(C)c1cc(Cc2ccc([N+](C)(C)C)cc2)c(O)c(C(C)(C)C)c1`, the outcome was inactive. Turning to `CC1=CCC[C@@H]2C1(C)CCC(C)[C@@]2(C)CC1=CC(=O)C=CC1=O` (stereo partly specified), the EC50 is > 50.1 µM and the IC50 worked out at 11.5 µM.

Consider `Cn1c2c3ccccc3nc-2cc2ccccc21`, for which the EC50 is > 174 µM and the IC50 was 0.316 µM. For `C[C@@H]1C[C@H]2[C@@H]3CCC4=CC(=O)C=C[C@]4(C)[C@@]3(F)[C@@H](O)C[C@]2(C)C1=O`, the result was inactive. Regarding `Cc1cc2c(cc1Cl)S(=O)(=O)OC(c1ccc([N+](=O)[O-])cc1)=N2`, the EC50 was > 200 µM and the IC50 was determined as 115 µM. With `Cc1cccc(N=NC(=O)NNc2cccc(C)c2C)c1C`, the EC50 was > 200 µM and the IC50 amounted to 70.8 µM. Take `CN(c1nc(=[N+](C)C)ss1)C1CCCCC1`: the result was inactive.
